Data published in US7982018B2, “Modified corticotropin releasing factor peptides and uses thereof” (Conjuchem, LLC, priority 2006, dated 2011).
Where no end group is shown, it is not given here.

System: Male C57BL/6 mice
Assay: Food intake in mice after a single intravenous injection of urocortin derivatives
Assay type: in vivo
Procedure: The potency of several modified urocortin derivatives were determined by measuring food intake in mice. A study was performed with native human urocortin 1, 2 and 3 to select a dose and to determine whether the IV route was adequate for native peptides. Following the initial study, two additional studies were performed in which the effect of modified derivatives and native peptides were compared.
Male C57BL/6 mice (22-26g) were housed 3 per cage and fed with standard chow. The night before dosing, mice were food restricted i.e., they were given only half of the amount of food ingested during the previous night. Dosing was performed between 9 and 10 a.m. Mice received a single intravenous injection (5 ml/kg via the tail vein) of saline or urocortin derivatives diluted in saline. Food intake was measured by placing preweighed pellets in the cage and weighing the uneaten pellets at 1, 2, 4, 6, 24 and 48 hours postdose.

[1] = Study No. 2, FIG. 3, 20 nmol/kg (Ucn I derivatives)
[2] = Study No. 2, FIG. 3, (Ucn II and III derivatives)

Substance: DNPSLSIDLTFHLLRTLLELAK-(ε-AEEA-MPA)TQS QRERA EQNRI IFDSV-NH2 (DNPSLSIDLTFHLLRTLLELAKTQSQRERAEQNRIIFDSV; Lys-AEEA-MPA, C-terminal amide) [SEQ ID No. 80, Modified peptide of human urocortin 1]
- 'rebound' of food intake as compared to the control [1]: increase of food intake as compared to the control

Substance: DNPSLSIDLTFHLLRTLLELARTQSQRERAEQNRIIFDSV-NH2 (DNPSLSIDLTFHLLRTLLELARTQSQRERAEQNRIIFDSV-NH2; listed as Homo sapiens) [human urocortin 1, Human Urocortin 1 (40 Amino-acids), native peptide]
- time up to which food intake was reduced [1]: up to 4 hours

Substance: FTLSLDVPTNIMNLLFNIAKAKNLRAQAAANAHLMAQI-NH2 (FTLSLDVPTNIMNLLFNIAKAKNLRAQAAANAHLMAQI-NH2; listed as Homo sapiens) [Urocortin III, Human Urocortin 3 (38 Amino-acids), native peptide]
- 'rebound' of food intake as compared to the control [2]: increase of food intake as compared to the control
- activity on food intake versus the free peptide [2]: much less active than the free peptide
- period of decreased food intake [2]: decreased food intake during the first hour after injection only

Substance: FTLSL DVPTN IMNLL FNIAK(ε-AEEA-MPA) ARNLR AQAAA NAHLM AQI-NH2 (FTLSLDVPTNIMNLLFNIAKARNLRAQAAANAHLMAQI; Lys-AEEA-MPA, C-terminal amide) [SEQ ID No. 85, Modified peptide of human urocortin 3]
- 'rebound' of food intake as compared to the control [2]: increase of food intake as compared to the control

Substance: IVLSLDVPIGLLQILLEQARAK-(ε-AEEA-MPA) AAR EQATT NARIL ARV-NH2 (IVLSLDVPIGLLQILLEQARAKAAREQATTNARILARV; Lys-AEEA-MPA, C-terminal amide) [SEQ ID No. 83, Modified peptide of human urocortin 2]
- inhibition of food intake as compared to the control group (Study No. 1, FIG. 1, 85 nmol/kg, 4-6 hour time interval): 50%
- duration of activity on food intake compared with the other tested compounds [2]: most prolonged activity

Substance: IVLSLDVPIGLLQILLEQARARAAREQATTNARILARVGHC-NH2 (IVLSLDVPIGLLQILLEQARARAAREQATTNARILARVGHC-NH2; listed as Homo sapiens) [SEQ ID No. 92]
- food intake in the 1-2 h time period versus control (Study No. 1, FIG. 1, 85 nmol/kg, 1-2 h postdose): back to the control
- time over which food intake was reduced/inhibited postdose (Study No. 1, FIG. 1, normal mice, 85 nmol/kg): up to 1 hour
- cumulative food intake versus saline control (Study No. 1, FIG. 2, 85 nmol/kg, at 6 hours postdose): still lower than the saline control
